The species entered for experiment [1] is Mus musculus. Kind of experiment: Selectivity ratio of EC50 for agonist activity at Gal4-fused mouse PPAR-alpha ligand binding domain expressed in CHO-K1 cells to EC50 for agonist activity at Gal4-fused mouse PPAR-delta ligand binding domain expressed in CHO-K1 cells. The class given is cell-based.
For experiment [2], the target named is T1, Peroxisome proliferator-activated receptor gamma (Homo sapiens, UniProt P37231).
T1 sequence (P37231 whole entry): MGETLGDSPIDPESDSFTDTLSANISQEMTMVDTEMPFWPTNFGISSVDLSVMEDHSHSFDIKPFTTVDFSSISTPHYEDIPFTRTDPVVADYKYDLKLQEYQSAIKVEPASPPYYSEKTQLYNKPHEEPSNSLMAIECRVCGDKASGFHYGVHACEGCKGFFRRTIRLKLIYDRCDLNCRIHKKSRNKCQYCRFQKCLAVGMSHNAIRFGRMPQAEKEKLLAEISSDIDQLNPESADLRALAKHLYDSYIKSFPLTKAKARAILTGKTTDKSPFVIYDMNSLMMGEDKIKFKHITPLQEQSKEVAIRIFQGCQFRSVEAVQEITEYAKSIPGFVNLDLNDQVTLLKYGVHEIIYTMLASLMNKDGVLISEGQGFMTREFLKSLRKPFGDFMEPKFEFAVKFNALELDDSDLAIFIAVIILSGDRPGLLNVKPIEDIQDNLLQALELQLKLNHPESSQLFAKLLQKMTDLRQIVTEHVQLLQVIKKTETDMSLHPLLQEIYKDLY
The class given is cell-based, CHO-K1.

The target of experiment [3] is T2, Peroxisome proliferator-activated receptor alpha (Homo sapiens, UniProt Q07869).
T2 sequence (Q07869 whole entry): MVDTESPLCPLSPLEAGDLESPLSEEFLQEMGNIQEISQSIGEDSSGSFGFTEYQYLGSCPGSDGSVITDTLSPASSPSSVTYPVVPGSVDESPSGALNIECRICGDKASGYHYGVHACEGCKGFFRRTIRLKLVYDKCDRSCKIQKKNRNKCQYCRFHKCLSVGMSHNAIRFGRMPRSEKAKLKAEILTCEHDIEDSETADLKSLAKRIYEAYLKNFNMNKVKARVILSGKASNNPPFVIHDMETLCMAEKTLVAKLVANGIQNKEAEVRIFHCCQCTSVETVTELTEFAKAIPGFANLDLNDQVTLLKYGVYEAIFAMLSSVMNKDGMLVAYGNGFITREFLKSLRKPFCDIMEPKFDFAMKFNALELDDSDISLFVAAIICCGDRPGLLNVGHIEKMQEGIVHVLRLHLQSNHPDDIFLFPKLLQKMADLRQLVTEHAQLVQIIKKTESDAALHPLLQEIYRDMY
Kind of experiment: Agonist activity at Gal4-fused human PPAR-alpha ligand binding domain expressed in CHO-K1 cells assessed as receptor transactivation incubated for 24 to 48 hrs by luciferase reporter gene assay. The class given is cell-based. A general note: A reporter such as luciferase makes a cellular process visible.

The species entered for experiment [4] is Mus musculus. Put plainly: Selectivity ratio of EC50 for agonist activity at Gal4-fused mouse PPAR-gamma ligand binding domain expressed in CHO-K1 cells to EC50 for agonist activity at Gal4-fused mouse PPAR-delta ligand binding domain expressed in CHO-K1 cells. The class given is cell-based.
In experiment [5] the target is T3, Peroxisome proliferator-activated receptor delta (Mus musculus, UniProt P35396).
T3 sequence (P35396 whole entry): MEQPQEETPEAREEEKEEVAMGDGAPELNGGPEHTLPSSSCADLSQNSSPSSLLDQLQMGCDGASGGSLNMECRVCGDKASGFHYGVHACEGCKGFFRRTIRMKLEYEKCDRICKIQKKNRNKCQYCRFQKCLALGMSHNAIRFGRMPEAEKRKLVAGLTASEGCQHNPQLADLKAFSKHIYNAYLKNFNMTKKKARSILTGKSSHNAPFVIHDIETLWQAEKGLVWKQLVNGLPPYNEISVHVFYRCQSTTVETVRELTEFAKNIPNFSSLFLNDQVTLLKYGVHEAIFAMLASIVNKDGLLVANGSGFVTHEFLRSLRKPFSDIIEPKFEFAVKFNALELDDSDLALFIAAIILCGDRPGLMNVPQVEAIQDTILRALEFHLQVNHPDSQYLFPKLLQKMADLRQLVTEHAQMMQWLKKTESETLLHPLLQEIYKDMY
Put plainly: Agonist activity at Gal4-fused mouse PPAR-delta ligand binding domain expressed in CHO-K1 cells assessed as receptor transactivation incubated for 24 to 48 hrs by luciferase reporter gene assay. The class given is cell-based.

With `Cc1cc(CC(=O)O)cc(CN2CCN(c3nc4ccc(C(F)(F)F)cc4s3)[C@@H](C)C2)c1`, the Ratio EC50 was 100 in the experiment listed under Mus musculus [1] and 69 in the experiment filed under Mus musculus [4]. The EC50 (usually the midpoint of the concentration-response curve) in experiment [2] was found to be 3100 nM; in experiment [3], 1800 nM; in experiment [5], 39 nM.

As for `Cc1cc(CC(=O)O)cc(CN2CCN(c3nc4ccc(C(F)(F)F)cc4s3)[C@H](C)C2)c1`, the Ratio EC50 came to 152 in the experiment filed under Mus musculus [1] and 74 in the experiment listed under Mus musculus [4]. The results for the EC50 in experiment [2], in experiment [3] and in experiment [5] were 1200 nM, 1600 nM and 24 nM, respectively.

The record behind these values is ChEMBL document CHEMBL5260859, “Discovery and structure-activity relationship study of 2-piperazinyl-benzothiazole derivatives as potent and selective PPARδ agonists” (Bioorg Med Chem, 2023).
